From patent US5521177A, “Benzimidazoles, pharmaceutical compositions containing these compounds and processes for preparing them” (Dr. Karl Thomae GmbH, priority 1992, dated 1996) come the findings set out here.

Each structure is given as a SMILES string.

This assay addresses T1, Angiotensin-II-Receptor (Rattus norvegicus, UniProt P25095).
T1 construct: The tissue (rat's lung) is homogenised in Tris buffer; from tissue; host or cells: rat lung homogenate
T1 sequence (P25095 1-359): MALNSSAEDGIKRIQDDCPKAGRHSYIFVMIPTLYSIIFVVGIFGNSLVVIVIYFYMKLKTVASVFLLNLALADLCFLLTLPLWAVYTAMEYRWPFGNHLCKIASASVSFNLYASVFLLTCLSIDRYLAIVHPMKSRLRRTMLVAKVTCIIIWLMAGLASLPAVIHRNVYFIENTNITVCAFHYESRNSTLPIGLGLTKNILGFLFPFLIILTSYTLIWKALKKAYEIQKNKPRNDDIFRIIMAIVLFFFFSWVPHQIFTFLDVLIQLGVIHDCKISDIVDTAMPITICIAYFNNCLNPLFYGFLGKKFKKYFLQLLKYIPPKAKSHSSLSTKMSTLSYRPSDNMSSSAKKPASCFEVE
Briefly: Angiotensin-II-Receptor Bonding ([125I]-angiotensin-II displacement, rat's lung homogenate). Conditions: 50 pM [125I]-angiotensin-II, 60 minutes at 37° C., pH 7.40. The class given is binding. Here is the method: Description of Method: Angiotensin-II-Receptor Bonding
The tissue (rat's lung) is homogenised in Tris buffer (50 mMol Tris, 150 mMol NaCl, 5 mMol EDTA, pH 7.40) and centrifuged twice for 20 minutes each time at 20,000×g. The finished pellet is resuspended in incubation buffer (50 mMol Tris, 5 mMol MgCl2, 0.2% BSA, pH 7.40) 1:75, based on the moist weight of the tissue. Each 0.1 ml of homogenate is incubated for 60 minutes at 37° C. with 50 pM [^125 I]-angiotensin-II (NEN, Dreieich, FRG) and increasing concentrations of the test substance in a total volume of 0.25 ml. The incubation is ended by rapid filtration through glass fibre filter mats. The filters are each washed with 4 ml of ice cold buffer (25 mMol Tris, 2.5 mMol MgCl2, 0.1% BSA, pH 7.40). The bound radioactivity is measured in a gamma-counter. The corresponding IC50 value is determined from the dosage-activity curve.
Substances A to H show the following IC50 values in the test described: […]
On to `CCCc1nc2c(C)cc(NC(=C[N+](=O)[O-])N(C)C)cc2n1Cc1ccc(-c2ccccc2C(=O)O)cc1` [Substance D, 4'-[[2-n-propyl-4-methyl-6-(1-dimethylamino-2-nitro-etheneamino) -1H-benzimidazol-1-yl]methyl]-biphenyl-2-carboxylic acid], for which the IC50 was 13 nM.
The compound `CCc1nc2c(C)cc(NC(=NS(C)(=O)=O)N(C)C)cc2n1Cc1ccc(-c2ccccc2-c2nnn[nH]2)cc1` [Substance H, 4'-[[2-ethyl-4-methyl-6-(3,3-dimethyl-2-methylsulphonyl-guanidino) -1H-benzimidazol-1-yl]methyl]-2-(1H-tetrazol-5-yl)-biphenyl] yielded an IC50 of 4 nM.
Consider `CCCc1nc2c(C)cc(NC(=C[N+](=O)[O-])N(C)C)cc2n1Cc1ccc(-c2ccccc2-c2nnn[nH]2)cc1` [Substance F, 4'-[[2-n-propyl-4-methyl-6-(1,1-dimethylamino-2-nitro-etheneamino) -1H-benzimidazol-1-yl]-methyl]-2-(1H-tetrazol-5-yl)-biphenyl], for which the IC50 was 2 nM.
Then `CCCc1nc2c(C)cc(NC(=C(C#N)C#N)N(C)C)cc2n1Cc1ccc(-c2ccccc2C(=O)O)cc1` [Substance C, 4'-[[2-n-propyl-4-methyl-6-(2,2-dicyano-1-dimethylamino-etheneamino) -1H-benzimidazol-1-yl]-methyl]-biphenyl-2-carboxylic acid], with 64 nM; and `CCCc1nc2c(C)cc(NC(=NS(N)(=O)=O)NC)cc2n1Cc1ccc(-c2ccccc2C(=O)O)cc1` [Substance E, 4'-[[2-n-propyl-4-methyl-6-(3-methyl-2-amidosulphonylguanidino) -1H-benzimidazol-1-yl]methyl]-biphenyl-2-carboxylic acid], with 56 nM.
In turn, `CCCc1nc2c(C)cc(NC(=NC#N)NC)cc2n1Cc1ccc(-c2ccccc2C(=O)O)cc1` [Substance A, 4'-[[2-n-Propyl-4-methyl-6-(2-cyano-3-methyl-guanidino)-1H-benzimidazol-1-yl]-methyl]-biphenyl-2-carboxylic acid] showed an IC50 of 11 nM.
As for `CCCc1nc2c(C)cc(NC(=NC#N)N(C)C)cc2n1Cc1ccc(-c2ccccc2-c2nnn[nH]2)cc1` [Substance B, 4'-[[2-n-propyl-4-methyl-6-(2-cyano-3,3-dimethyl-guanidino) -1H-benzimidazol-1-yl]-methyl]-2-(1H-tetrazol-5-yl)-biphenyl], the figure is 3 nM; as for `CCc1nc2c(C)cc(Nc3c(N(C)C)c(=O)c3=O)cc2n1Cc1ccc(-c2ccccc2C(=O)O)cc1` [Substance G, 4'-[[2-ethyl-4-methyl-6-[(2-dimethylamino-3,4-dioxo-1-cyclobuten-1-yl) -amino]-1H-benzimidazol-1-yl]-methyl]-biphenyl-2-carboxylic acid], 17 nM.
